One assay concerns the target T1, human CYP11B2 (Homo sapiens, UniProt P19099).
T1 construct: expressed in transfected cells
T1 sequence (P19099 25-503): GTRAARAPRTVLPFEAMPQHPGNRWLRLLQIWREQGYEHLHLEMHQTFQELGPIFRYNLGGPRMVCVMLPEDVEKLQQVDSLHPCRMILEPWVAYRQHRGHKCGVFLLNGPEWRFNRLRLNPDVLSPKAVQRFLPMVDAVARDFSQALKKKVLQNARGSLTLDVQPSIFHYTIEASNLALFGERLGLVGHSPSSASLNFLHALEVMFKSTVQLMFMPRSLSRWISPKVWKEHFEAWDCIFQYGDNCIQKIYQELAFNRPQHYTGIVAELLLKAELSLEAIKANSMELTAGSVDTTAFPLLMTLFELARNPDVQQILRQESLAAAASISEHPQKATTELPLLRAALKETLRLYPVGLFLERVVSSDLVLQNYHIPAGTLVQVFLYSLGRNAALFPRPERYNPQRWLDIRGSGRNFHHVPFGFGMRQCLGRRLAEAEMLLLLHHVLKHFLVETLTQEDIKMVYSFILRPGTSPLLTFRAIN
Nature of the assay: G-402 cellular enzyme assay, human CYP11B2 (aldosterone release, HTRF). Format: cell-based. As to conditions: G-402 cells expressing human CYP11B2; 1 μM Deoxycorticosterone. The method in brief: (§1)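 EC50 comes from least-squares fitting of a 4-parameter MMF curve to steroid product levels, measured by HTRF as aldosterone for CYP11B2 or cortisol for CYP11B1. Stably transfected G-402 host cells were given substrate (1 μM deoxycorticosterone or deoxycortisol, respectively) with inhibitor for 16 h in medium with 2.5% charcoal-treated FCS.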
(In general: Time-resolved FRET reads energy transfer from a long-lived donor to a nearby acceptor.)

In a further assay the target is T2, human CYP11B1 (Homo sapiens, UniProt P15538).
T2 construct: expressed in transfected cells
T2 sequence (P15538 25-503): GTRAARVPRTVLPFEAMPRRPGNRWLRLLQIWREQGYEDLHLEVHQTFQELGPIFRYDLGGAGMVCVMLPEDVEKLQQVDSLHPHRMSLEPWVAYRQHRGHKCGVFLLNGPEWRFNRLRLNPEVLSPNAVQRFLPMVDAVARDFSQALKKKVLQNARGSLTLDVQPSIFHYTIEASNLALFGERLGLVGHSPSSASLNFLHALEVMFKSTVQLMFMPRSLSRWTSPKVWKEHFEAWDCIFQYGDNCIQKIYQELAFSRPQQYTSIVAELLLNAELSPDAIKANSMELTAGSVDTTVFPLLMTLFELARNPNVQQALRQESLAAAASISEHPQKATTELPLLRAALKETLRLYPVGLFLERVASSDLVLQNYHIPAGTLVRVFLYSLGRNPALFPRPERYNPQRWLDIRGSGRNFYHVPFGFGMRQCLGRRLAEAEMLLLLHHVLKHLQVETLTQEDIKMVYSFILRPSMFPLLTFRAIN
Description: G-402 cellular enzyme assay, human CYP11B1 (cortisol release, HTRF). In kind it is cell-based. To be noted: G-402 cells expressing human CYP11B1; 1 μM Deoxycortisol. The method in brief:
as §1

The EC50 is the midpoint of the concentration-response curve. The low end stands for higher potency in that assay, the high end for lower potency in that assay. In the case of `CN1C(=O)CCc2cc(-c3cncc(CNC(=O)c4ncccc4Cl)c3)c(F)cc21` [Example 131, 3-Chloro-pyridine-2-carboxylic acid [5-(7-fluoro-1-methyl-2-oxo-1,2,3,4-tetrahydro-quinolin-6-yl)-pyridin-3-ylmethyl]-amide], the values for the EC50 at human CYP11B2 and at human CYP11B1 were 3 nM and 440 nM, respectively.

Consider `CN1C(=O)CCc2cc(-c3cncc(CNC(=O)c4cc(Cl)nnc4Cl)c3)c(F)cc21` [Example 132], for which the EC50 is 29 nM at human CYP11B2 and 4800 nM at human CYP11B1.

Consider `CCC(=O)N1CC[C@@H](Oc2cncc(-c3cc4c(cc3F)N(C)C(=O)CC4)c2)C1` [Example 133], for which the EC50 at human CYP11B2 came out at 10 nM; on human CYP11B1 it was 837 nM.

As to `COc1nc(Cl)cnc1C(=O)NCc1cncc(-c2ccc3c(c2)CCC(=O)N3C)c1` [Example 134], the results for the 50% effective concentration (EC50) at human CYP11B2 and at human CYP11B1 were 3 nM and 94 nM, respectively.

Regarding `Cc1noc(C(F)(F)F)c1C(=O)NCc1cncc(-c2ccc3c(c2)CCC(=O)N3C)c1` [Example 136], the EC50 on human CYP11B2 came to 47 nM; at human CYP11B1, 2430 nM.

Take `CN1C(=O)CCc2cc(-c3cncc(C4(NC(=O)c5ncccc5Cl)CC4)c3)ccc21` [Example 137, 3-Chloro-pyridine-2-carboxylic acid {1-[5-(1-methyl-2-oxo-1,2,3,4-tetrahydro-quinolin-6-yl)-pyridin-3-yl]-cyclopropyl}-amide]: the EC50 is 6 nM on human CYP11B2 and 872 nM at human CYP11B1.

Take `CN1C(=O)CCc2cc(-c3cncc(C(C)(C)NC(=O)c4ncccc4Cl)c3)ccc21` [Example 138]: the half-maximal effective concentration (EC50) was determined as 3 nM on human CYP11B2 and 267 nM on human CYP11B1.

In the case of `Cc1noc(C)c1C(=O)NC(C)(C)c1cncc(-c2ccc3c(c2)CCC(=O)N3C)c1` [Example 139], the EC50 on human CYP11B2 turned out to be 18 nM; at human CYP11B1, 455 nM.

Regarding `O=C1CCc2cc(-c3cncc(CNC(=O)c4ncccc4Cl)c3)ccc2N1` [Example 140, 3-Chloro-pyridine-2-carboxylic acid [5-(2-oxo-1,2,3,4-tetrahydro-quinolin-6-yl)-pyridin-3-ylmethyl]-amide], the EC50 on human CYP11B2 worked out at 114 nM; at human CYP11B1, 6650 nM.

Turning to `Cc1noc(C)c1C(=O)NCc1cncc(-c2ccc3c(c2)CCC(=O)N3)c1` [Example 141, 3,5-Dimethyl-isoxazole-4-carboxylic acid [5-(2-oxo-1,2,3,4-tetrahydro-quinolin-6-yl)-pyridin-3-ylmethyl]-amide], the EC50 on human CYP11B2 was 856 nM; on human CYP11B1, 19900 nM.

`CN1C(=O)CCc2cc(-c3cncc(C4(NC(=O)c5ncccc5Cl)CC4)c3)c(F)cc21` [Example 142]: the EC50 at human CYP11B2 was found to be 3 nM; on human CYP11B1, 380 nM.

On to `Cc1cccnc1C(=O)NC1(c2cncc(-c3ccc4c(c3)CCC(=O)N4C)c2)CC1` [Example 143], for which the EC50 at human CYP11B2 was 9 nM; at human CYP11B1, 51 nM.

For `CCC(=O)N[C@H]1CC[C@H](Oc2cncc(-c3ccc4c(c3)CCC(=O)N4C)c2)CC1` [Example 144], the EC50 on human CYP11B2 was determined as 4 nM; at human CYP11B1, 460 nM.

`CN1C(=O)CCc2cc(-c3cncc(CNC(=O)c4cnoc4C(F)(F)F)c3)ccc21` [Example 145]: the EC50 amounted to 175 nM at human CYP11B2 and 3780 nM on human CYP11B1.

On to `CCS(=O)(=O)NCCOc1cncc(-c2ccc3c(c2)CCC(=O)N3C)c1` [Example 151, ethanesulfonic acid {2-[5-(1-methyl-2-oxo-1,2,3,4-tetrahydro-quinolin-6-yl)-pyridin-3-yloxy]-ethyl}-amide], for which the figures for the EC50 on human CYP11B2 and at human CYP11B1 were 5 nM and 90 nM, respectively.

As to `CN1C(=O)CCc2cc(-c3cncc(CNS(=O)(=O)c4cccc(Cl)c4)c3)ccc21` [Example 152, 3-Chloro-N-[5-(1-methyl-2-oxo-1,2,3,4-tetrahydro-quinolin-6-yl)-pyridin-3-ylmethyl]-benzenesulfonamide], the EC50 at human CYP11B2 stood at 154 nM; on human CYP11B1, 4750 nM.

Consider `COc1ccc(S(=O)(=O)NCc2cncc(-c3ccc4c(c3)CCC(=O)N4C)c2)cn1` [Example 153, 6-Methoxy-pyridine-3-sulfonic acid [5-(1-methyl-2-oxo-1,2,3,4-tetrahydro-quinolin-6-yl)-pyridin-3-ylmethyl]-amide], for which the concentration for a half-maximal effect (EC50) at human CYP11B2 was 375 nM; at human CYP11B1, 11100 nM.

`Cc1noc(C)c1S(=O)(=O)NCc1cncc(-c2ccc3c(c2)CCC(=O)N3C)c1` [Example 154, 3,5-Dimethyl-isoxazole-4-sulfonic acid [5-(1-methyl-2-oxo-1,2,3,4-tetrahydro-quinolin-6-yl)-pyridin-3-ylmethyl]-amide]: the EC50 on human CYP11B2 amounted to 114 nM; on human CYP11B1, 1430 nM.

In the case of `CN1C(=O)CCc2cc(-c3cncc(CNS(=O)(=O)C4CC4)c3)ccc21` [Example 155, Cyclopropanesulfonic acid [5-(1-methyl-2-oxo-1,2,3,4-tetrahydro-quinolin-6-yl)-pyridin-3-ylmethyl]-amide], the EC50 was 47 nM at human CYP11B2 and 589 nM on human CYP11B1.

`CN1C(=O)CCc2cc(-c3cncc(CNS(=O)(=O)c4ccc(Cl)c(Cl)c4)c3)ccc21` [Example 156, 3,4-Dichloro-N-[5-(1-methyl-2-oxo-1,2,3,4-tetrahydro-quinolin-6-yl)-pyridin-3-ylmethyl]-benzenesulfonamide]: the EC50 on human CYP11B2 is 155 nM; on human CYP11B1, 1370 nM.

`CN1C(=O)CCc2cc(-c3cncc(CNS(=O)(=O)c4cn(C)cn4)c3)ccc21` [Example 157, 1-Methyl-1H-imidazole-4-sulfonic acid [5-(1-methyl-2-oxo-1,2,3,4-tetrahydro-quinolin-6-yl)-pyridin-3-ylmethyl]-amide]: the EC50 on human CYP11B2 came out at 463 nM; at human CYP11B1, 3260 nM.

Take `CN1C(=O)CCc2cc(-c3cncc(CNS(=O)(=O)c4ccc(Cl)nc4)c3)ccc21` [Example 158, 6-Chloro-pyridine-3-sulfonic acid [5-(1-methyl-2-oxo-1,2,3,4-tetrahydro-quinolin-6-yl)-pyridin-3-ylmethyl]-amide]: the EC50 on human CYP11B2 was 239 nM; at human CYP11B1, 6430 nM.

On to `CN1C(=O)CCc2cc(-c3cncc(CNS(=O)(=O)c4cnn(C)c4)c3)ccc21` [Example 159, 1-Methyl-1H-pyrazole-4-sulfonic acid [5-(1-methyl-2-oxo-1,2,3,4-tetrahydro-quinolin-6-yl)-pyridin-3-ylmethyl]-amide], for which the half-maximal effective concentration (EC50) stood at 180 nM on human CYP11B2 and 7930 nM at human CYP11B1.

`CCS(=O)(=O)N1CCC[C@H](Oc2cncc(-c3ccc4c(c3)CCC(=O)N4C)c2)C1` [Example 160, 6-[5-((S)-1-Ethanesulfonyl-piperidin-3-yloxy)-pyridin-3-yl]-1-methyl-3,4-dihydro-1H-quinolin-2-one]: the EC50 on human CYP11B2 came to 113 nM; at human CYP11B1 it was 716 nM.

With `CCS(=O)(=O)N1CCC(Oc2cncc(-c3ccc4c(c3)CCC(=O)N4C)c2)CC1` [Example 161, 6-[5-(1-Ethanesulfonyl-piperidin-4-yloxy)-pyridin-3-yl]-1-methyl-3,4-dihydro-1H-quinolin-2-one], the EC50 is 1 nM at human CYP11B2 and 8 nM on human CYP11B1.

As to `CN1C(=O)CCc2cc(-c3cncc(CNS(=O)(=O)CC(F)(F)F)c3)ccc21` [Example 162, 2,2,2-Trifluoro-ethanesulfonic acid [5-(1-methyl-2-oxo-1,2,3,4-tetrahydro-quinolin-6-yl)-pyridin-3-ylmethyl]-amide], the EC50 on human CYP11B2 was 62 nM; on human CYP11B1, 2850 nM.

Consider `CN1C(=O)CCc2cc(-c3cncc(CNS(=O)(=O)C(F)(F)F)c3)ccc21` [Example 163, C,C,C-Trifluoro-N-[5-(1-methyl-2-oxo-1,2,3,4-tetrahydro-quinolin-6-yl)-pyridin-3-ylmethyl]-methanesulfonamide], for which the EC50 worked out at 61 nM on human CYP11B2 and 2390 nM on human CYP11B1.

Turning to `CCS(=O)(=O)N1CC[C@H](Oc2cncc(-c3ccc4c(c3)CCC(=O)N4C)c2)C1` [Example 164, 6-[5-((S)-1-Ethanesulfonyl-pyrrolidin-3-yloxy)-pyridin-3-yl]-1-methyl-3,4-dihydro-1H-quinolin-2-one], the EC50 was found to be 9 nM on human CYP11B2 and 207 nM at human CYP11B1.

Regarding `CCS(=O)(=O)N1CC[C@H]1COc1cncc(-c2ccc3c(c2)CCC(=O)N3C)c1` [Example 165, 6-[5-((S)-1-Ethanesulfonyl-azetidin-2-ylmethoxy)-pyridin-3-yl]-1-methyl-3,4-dihydro-1H-quinolin-2-one], the EC50 on human CYP11B2 amounted to 13 nM; at human CYP11B1, 494 nM.

These data come from patent publication US9260408B2, “Dihydroquinoline-2-one derivatives” (Hoffmann-La Roche Inc., priority 2011, dated 2016).
